# Columns and labels:
# [1] = test system: a Staphylococcus aureus strain; assay: Bacterial killing, Staphylococcus aureus strain (data not shown); type: cell-based
# [2] = test system: E. faecalis strain MMH594; assay: Antimicrobial (bacterial killing) assay; type: cell-based, Enterococcus faecalis; conditions: mM concentrations, 1 to 30 minutes, room temperature
# Method: Compounds 6, 7, 15 were purchased from TimTec and ChemDiv, dissolved in DMSO at a concentration of 5 or 10 mg/ml, and further diluted in DMSO as indicated. E. faecalis strain MMH594 was grown overnight with aeration at 37° C. in Bacto brain heart infusion (BHI) broth (Becton Dickinson), transferred to ice, and washed in phosphate-buffered saline (PBS; pH 7.2). Equal volumes of a dissolved compound and bacteria were mixed, incubated at room temperature for 1 to 30 minutes, ten-fold serially diluted in PBS, and plated in […] droplets on BHI agar plates. Plates were incubated at room temperature until colonies were visible.
# Drosophila infection = assay: Drosophila infection-survival bioassay (data not shown); type: in vivo
# [3] = test system: a different Enterococcus faecalis strain; assay: Bacterial killing, different Enterococcus faecalis strain (data not shown); type: cell-based
# E. faecalis MMH594 = assay: MIC assay, E. faecalis in vitro; type: cell-based; conditions: Enterococcus faecalis; E. faecalis MMH594 in 20% BHI, 80% M9, 37° C., 15 hours, scored by eye
# Method: A culture of E. faecalis MMH594 was grown overnight in BHI broth to stationary phase at 37° C. with aeration. The culture was diluted to an approximate density of […] in worm infection media (20% BHI, 80% M9 buffer). 12.5 μl of the bacterial culture dilution was inoculated into 384-well plates containing 12.5 μl of 2-fold serial dilutions of a test compound. […] Plates were incubated at 37° C. for 15 hours and scored by eye for bacterial growth.
# E. faecalis strain V583 [4] = assay: Biofilm maintenance assay (crystal violet); type: cell-based, Enterococcus faecalis; conditions: 10 μg/ml added to biofilm established for 24 hours
# Method: To test for the efficacy of candidate compounds on biofilm maintenance, a bacterial culture of OD600=0.025 was grown in 96-well polystyrene plates for 24 hours as described above to establish biofilm mass prior to the addition of candidate compounds dissolved in DMSO at a final concentration of 10 μg/ml. The plates were then processed as described above.
# [5] = test system: C. elegans infected with E. faecalis; assay: Dose response time courses in the C. elegans-E. faecalis infection assay; type: in vivo, Caenorhabditis elegans; conditions: Effective Concentration: survival significantly different from mock-treated, p-value <0.05, logrank; read-out: EC
# Method: glp-4(bn2); sek-1 (km4) mutant worms were grown to gravid adult stage. 1,000 worms at the L1 stage were grown for 5.2 days at 15° C. on 9-cm plates of SK agar media spread with a lawn of E. coli strain HB101. Embryos from the gravid adults were isolated by a previously described hypochlorite method (see Tan et al., (1999) Proc. Natl. Acad. Sci. USA 96, 715-720) and hatched at 15° C. for 2 days. Approximately 4,500 of the Ll hatchlings were grown on each 9-cm plate of SK-NS agar (SK media with 62.5 U/ml nystatin and 100 μg/ml streptomycin) and with lawns of E. coli HB101. These worms were grown at 25° C. for 52 hours to generate sterile, young adults.
# A culture of E. faecalis MMH594 was grown in BHI broth (BD Difco) with 80 μg/ml kanamycin at 37° C. for 6 hours and 100 μl of the culture were spread onto each 9-cm plate of BHI agar containing 80 μg/mlkanamycin. Lawns of E. faecalis were grown at 25° C. for 16 hours and transferred to 15° C. for 8 hours.
# Sterile adult worms were resuspended in M9 buffer and washed twice with M9 in a 1:10 ratio to remove E. coli. 8,000 worms were pipetted onto each lawn of E. faecalis and incubated 15 hours at 15° C. After infection, the worms were resuspended in M9 and used as described below. 384-well plates (Corning #3712) were filled with 55 μl media (see below) using a Thermo Scientific MULTIDROP Combi reagent dispenser. 0.3 μl of a candidate compound in DSMO were pin transferred into each well using a CyBio CYBI-Well vario transfer system. The plates were agitated using an Eppendorf MIXMATE at 1,800 rpm for 15 seconds. Using the Union Biometrica Complex Object Parametric Analyzer and Sorter (COPAS) BIOSORT worm sorter according to manufacturer's protocols, 15 of the infected worms were transferred to each well in a total volume of approximately 15 μl. Total volume per well is 70 μl/well with a final composition of the media being 20% BHI, […], 80 μg/ml kanamycin, 62.5 U/ml nystatin, 1% DMSO, and 19% sheath solution (Union Biometrica Part #300-5101-000). Plates were vortexed for 5 seconds, centrifuged at 1000×g for 10 seconds, and sealed with gas permeable membranes (BREATHEASY Diversified). Plates were placed in a single layer on the top shelves in a 26.3° C. incubator at 85% relative humidity (RH) and incubated without agitation for 5 days.
# The dose dependence of certain antimicrobial compounds identified by the assay above were studied. These compounds were purchased in a larger amount from commercial sources. For each of these compounds, an infection assay was performed essentially as described above at different concentrations except that SYTOX staining was not used. Instead, bright-field images of the wells were acquired at daily time points and scored manually for worm survival by analyzing worm body positioning. […] All compounds used in this assays were confirmed for their identity and purity by liquid chromatography/mass spectrometry.
# E. faecalis strain V583 [6] = assay: Biofilm formation assay (crystal violet); type: cell-based, Enterococcus faecalis; conditions: 10 μg/ml, 24 hours
# Method: To test the efficacy of candidate compounds on biofilm formation, a dilute bacterial culture of Enterococcus faecalis was incubated with candidate compounds in polystyrene plates and the level of biofilm formation was quantified by measuring the amount of crystal violet absorbed by the biofilm mass attached to plastic. First, E. faecalis strain V583 was grown at 37° C. for 16 hours in Tryptic Soy Broth (TSB) with 1% glucose. The bacterial culture was diluted to OD600=0.025 in fresh medium and was dispensed into 96-well polystyrene plates. Candidate compounds dissolved in dimethylsulfoxide (DMSO) were added to the wells to provide a final concentration of 10 μg/ml and the plates were incubated statically at 37° C. for 24 hours. After incubation, the medium was aspirated, the planktonic cells were removed by washing with phosphate buffered saline (PBS), and the plates were inverted and dried for 1 hour at room temperature. The biofilm mass was stained with 0.2% crystal violet for 15 minutes and extraneous crystal violet was washed away with PBS. The crystal violet absorbed by the biofilm was extracted with an 80% ethanol, 20% acetone mixture and the absorbance at 595 nm (OD595) was read with a spectrophotometer.
# F53E10.4 = assay: qRT-PCR of immune response gene expression; type: in vivo, Caenorhabditis elegans; conditions: 20 μg/mL versus DMSO
# Description: (§1) Caenorhabditis elegans strains were maintained on Escherichia coli OP50 as described in Brenner, Genetics, 1974, 77:71-94. Wildtype N2 nematodes carrying integrated transgenes acIs219 (AU78), acIs101(AY101), agIs17(AU133), or agIs26 (AU185) (see (1) Shivers, et al., PLoS. Genet. 2010, 6: e1000892, (2) Bolz et al., J. Biol. Chem. 2010, 285:10832-40, (3) Estes et al., Proc. Natl. Acad. Sci., 2010, 107:2153-8, and (4) Irazoqui et al., Proc. Natl. Acad. Sci., 2008, 105:17469-74) were used to assay the immunomodulatory activity of candidate compounds. For qRT-PCR experiments, RNA was extracted from synchronized young adult nematodes exposed to a candidate compound or DMSO (as a control) using TRI Reagent and reverse transcribed using the Retroscript kit (Ambion). This cDNA was then subjected to qRT-PCR analysis using SYBR green detection on a CFX1000 machine (Bio-Rad, http://www.bio-rad.com). Primers for qRT-PCR were obtained from published sequences (see Irazoqui et al., Proc. Natl. Acad. Sci., 2008, 105:17469-74 and Troemel et al., PLoS Genet. 2006, 2:e183). […] Fold change was calculated using the Pfaffl method (see Pfaffl et al., Nucleic Acids Res., 2001, 29:e45).
# (§2) By using the assay described above, the inventors identified five compounds (i.e., Compounds 11, 18, 20, 25, and 26) that robustly and reproducibly activated the immune GFP reporters (see FIG. 5 and Table 3) or activated selected immune response genes as determined by quantitative RT-PCR analysis (see Table 4). For the latter experiments, RNA was isolated from wild-type C. elegans N2 or pmk-1 mutant animals exposed to the candidate immunomodulatory compounds at 20 μg/mL and from animals exposed to DMSO. The inventors tested several immune response genes in compound-exposed animals that are known to be regulated by PMK-1, the p38 Mitogen Acitvated Protein kinase homolog, an evolutionary-conserved, central regulator of nematode immunity. The inventors also used qRT-PCR to measure the activation of several immune response genes that are known to be activated independently of PMK-1. […] Thus, without wishing to be bound by theory, it is believed that a subset of the compounds identified in the screen for novel anti-infective compounds directly stimulate the immune response of the nematode and that these compounds act both by directly stimulating the PMK-1 pathway and by unidentified parallel immune response pathways.
# C49G7.5 = assay: qRT-PCR of immune response gene expression; type: in vivo, Caenorhabditis elegans; conditions: 20 μg/mL versus DMSO
# Description: as §1, §2
# irg-1 = assay: qRT-PCR of immune response gene expression; type: in vivo, Caenorhabditis elegans; conditions: 20 μg/mL versus DMSO
# Description: as §1, §2
# T24B8.5 = assay: qRT-PCR of immune response gene expression; type: in vivo, Caenorhabditis elegans; conditions: 20 μg/mL versus DMSO
# Description: as §1, §2
# F35E12.5 = assay: qRT-PCR of immune response gene expression; type: in vivo, Caenorhabditis elegans; conditions: 20 μg/mL versus DMSO
# Description: as §1, §2
# F56D6.2 = assay: qRT-PCR of immune response gene expression; type: in vivo, Caenorhabditis elegans; conditions: 20 μg/mL versus DMSO
# Description: as §1, §2
# C17H12.8 = assay: qRT-PCR of immune response gene expression; type: in vivo, Caenorhabditis elegans; conditions: 20 μg/mL versus DMSO
# Description: as §1, §2
# immune response genes = assay: qRT-PCR of immune response genes, PMK-1 dependence (overall); type: in vivo, Caenorhabditis elegans; conditions: 20 μg/mL, N2 or pmk-1 mutant animals
# Description: as §1
# By using the assay described above, the inventors identified five compounds (i.e., Compounds 11, 18, 20, 25, and 26) that robustly and reproducibly activated the immune GFP reporters (see FIG. 5 and Table 3) or activated selected immune response genes as determined by quantitative RT-PCR analysis (see Table 4). For the latter experiments, RNA was isolated from wild-type C. elegans N2 or pmk-1 mutant animals exposed to the candidate immunomodulatory compounds at 20 μg/mL and from animals exposed to DMSO. The inventors tested several immune response genes in compound-exposed animals that are known to be regulated by PMK-1, the p38 Mitogen Acitvated Protein kinase homolog, an evolutionary-conserved, central regulator of nematode immunity. The inventors also used qRT-PCR to measure the activation of several immune response genes that are known to be activated independently of PMK-1. […]
# T24B8.5::GFP = assay: Immune GFP reporter induction, transgene acIs219; type: in vivo, Caenorhabditis elegans; conditions: compound-exposed versus DMSO-exposed animals, visual
# Description: as §1
# Without wishing to be bound by theory, it was hypothesized that a subset of these compounds cured nematode infection by directly activating the innate immune response of the animal. To test this hypothesis, a multi-faceted approach was used. First, the inventors studied four C. elegans strains in which the promoter of the nematode immune response genes T24B8.5, F35E12.5, irg-1 and clec-60 were individually fused to GFP, generating transgenes acIs219 (AU78), acIs101(AY101), agIs17(AU133), or agIs26 (AU185), respectively, thereby allowing a visual readout of gene activity in each strain. Using these reporter strains, the ability of 33 compounds previously shown to have anti-Enterococcal killing activity in the C. elegans infection assay (24 of which have been described above) were tested for their ability to modulate the nematode immune response.
structure (smiles),measurement,setting,value
O=C(O)CSCC(=O)N1CCn2c3c(c4cc(C5CCCCC5)ccc42)CCCC31 (stereo not shown) [Compound 15],killing of a Staphylococcus aureus strain,[1],killed
same,bactericidal activity (FIGS. 7A and 7B),[2],rapid killing of bacteria
same,bactericidal activity in Drosophila infection-survival bioassay,Drosophila infection,showed bactericidal activity
same,killing of a different Enterococcus faecalis strain,[3],killed
O=C(O)C1CC(=O)N(CCC23CC4CC(CC(C4)C2)C3)/C(=N\c2ccc(Cl)cc2)S1 (stereo not shown) [Compound 6],MIC,E. faecalis MMH594,6.25 µg/mL
same,killing of a Staphylococcus aureus strain,[1],killed
same,"biofilm maintenance (OD595, FIG. 3B)",E. faecalis strain V583 [4],disrupted biofilm once it was formed
same,minimal effective concentration,[5],0.39 µg/mL
same,"biofilm formation (OD595, FIG. 3A)",E. faecalis strain V583 [6],prevented E. faecalis biofilm formation
same,bactericidal activity (FIGS. 7A and 7B),[2],rapid killing of bacteria
same,bactericidal activity in Drosophila infection-survival bioassay,Drosophila infection,showed bactericidal activity
same,killing of a different Enterococcus faecalis strain,[3],killed
CC(C)(c1ccc(NS(=O)(=O)C(F)(F)F)cc1)c1ccc(C(C)(C)c2cccc(NS(=O)(=O)C(F)(F)F)c2)cc1 [Compound 18],"F53E10.4 expression, average fold-change",F53E10.4; genotype N2,0.2 fold-change
same,"F53E10.4 expression, average fold-change",F53E10.4; genotype pmk-1(km25),0.3 fold-change
same,"C49G7.5 expression, average fold-change",C49G7.5; genotype N2,11.1 fold-change
same,"C49G7.5 expression, average fold-change",C49G7.5; genotype pmk-1(km25),57.4 fold-change
same,"irg-1 expression, average fold-change",irg-1; genotype N2,1.5 fold-change
same,"irg-1 expression, average fold-change",irg-1; genotype pmk-1(km25),4.4 fold-change
same,"T24B8.5 expression, average fold-change",T24B8.5; genotype N2,2.6 fold-change
same,"T24B8.5 expression, average fold-change",T24B8.5; genotype pmk-1(km25),0.3 fold-change
same,"F35E12.5 expression, average fold-change",F35E12.5; genotype N2,10.6 fold-change
same,"F35E12.5 expression, average fold-change",F35E12.5; genotype pmk-1(km25),0.4 fold-change
same,"F56D6.2 expression, average fold-change",F56D6.2; genotype N2,2.2 fold-change
same,"F56D6.2 expression, average fold-change",F56D6.2; genotype pmk-1(km25),1.0 fold-change
same,"C17H12.8 expression, average fold-change",C17H12.8; genotype N2,10.2 fold-change
same,"C17H12.8 expression, average fold-change",C17H12.8; genotype pmk-1(km25),0.3 fold-change
same,PMK-1 dependence of immune response gene activation,immune response genes,activated at least one immune response gene in the nematode in a manner independent of PMK-1
same,immune reporter induction T24B8.5::GFP,T24B8.5::GFP,+

# — patent US9241928B2, “Antimicrobial compounds” (The General Hospital Corporation, priority 2009, dated 2016)
